# US9718840B2, “Condensed 5-oxazolidinone derivative” (SUMITOMO DAINIPPON PHARMA CO., LTD., priority 2014, dated 2017)
# Legend:
# [1] = system: Rabbit nail bleeding models; assay: Effect of combined use with antiplatelet drug using rabbit nail bleeding model; format: in vivo; conditions: alone; for Bleeding time: rabbit, maximum 60 minutes; for Bleeding time (fold-increase): ratio to vehicle group average
# Description: Rabbit nail bleeding models were prepared by a modification of the report of Wong et al. (Wong P C. et al., J. Thromb. Haemost. 7: 1313-1320 (2009)). Male rabbits (JW, 1.5 to 3.5 kg) were anesthetized by the inhalation of isoflurane (ISOFLU®, manufactured by DS Pharma Animal Health Co., Ltd.) (introduced anesthesia: 4%, continuous anesthesia: 2 to 3%). For the intravenous administration of a test drug or a vehicle, an indwelling needle was inserted to the auricular vein, and the test drug or the vehicle was promptly intravenously administered (0.67 mL/kg) and then continuously intravenously administered (1 mL/kg/hr). One hour after the start of administration, three posterior toenails were cut and dipped in saline heated to approximately 37° C., and the bleeding time was measured. The bleeding time was defined as a time from the cutting to the arrest of bleeding, and an average value from the three nails was used. The measurement time was 60 minutes at the maximum. If bleeding for 60 minutes or longer was confirmed, the bleeding time was regarded as 60 minutes.
# [2] = system: Rabbit nail bleeding models; assay: Bleeding time evaluation test using rabbit nail bleeding model; format: in vivo; conditions: for Bleeding time: Experiment 2 (maximum 60 minutes), rabbit; for Bleeding time (fold-increase): Experiment 2, ratio to vehicle group average
# Description: Rabbit nail bleeding models were prepared by a modification of the report of Wong et al. (Wong P C. et al., J. Thromb. Haemost. 7: 1313-1320 (2009)). Male rabbits (JW, 1.5 to 3.5 kg) were anesthetized by the inhalation of isoflurane (ISOFLU®, manufactured by DS Pharma Animal Health Co., Ltd.) (introduced anesthesia: 4%, continuous anesthesia: 2 to 3%).
# For the intravenous administration of a test drug or a vehicle, an indwelling needle was inserted to the auricular vein, and the test drug or the vehicle was promptly intravenously administered (0.67 mL/kg) and then continuously intravenously administered (1 mL/kg/hr). One hour after the start of administration, three posterior toenails were cut and dipped in saline heated to approximately 37° C., and the bleeding time was measured. The bleeding time was defined as a time from the cutting to the arrest of bleeding, and an average value from the three nails was used. The measurement time was 30 minutes at the maximum for experiment 1 and 60 minutes at the maximum for experiment 2. In each experiment, if bleeding for 30 minutes or 60 minutes or longer was confirmed, the bleeding time was regarded as 30 minutes or 60 minutes.
# Human FIXαβ = target: T1, Human FIXαβ (Homo sapiens, UniProt P00740); assay: Enzyme selectivity evaluation test: FIXa; format: biochemical
# T1 construct: 3) Factor IXa (FIXa); purchased Enzyme Research Laboratories
# T1 sequence (P00740 227-461 limits assumed): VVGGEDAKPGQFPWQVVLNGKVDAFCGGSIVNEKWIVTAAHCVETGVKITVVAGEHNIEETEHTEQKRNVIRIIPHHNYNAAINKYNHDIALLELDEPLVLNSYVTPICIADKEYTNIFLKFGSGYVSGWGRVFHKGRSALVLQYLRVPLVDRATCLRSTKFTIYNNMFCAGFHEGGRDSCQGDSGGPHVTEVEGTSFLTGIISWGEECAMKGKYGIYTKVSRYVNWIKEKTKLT
# T1 sequence (P00740 47-191 partner limits assumed): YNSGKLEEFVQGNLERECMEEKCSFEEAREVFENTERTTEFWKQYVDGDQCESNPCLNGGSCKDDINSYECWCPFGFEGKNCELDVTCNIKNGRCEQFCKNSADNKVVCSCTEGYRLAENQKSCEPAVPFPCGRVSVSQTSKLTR
# Description: SPECTROZYME® FIXa (D-Leu-Ph′Gly-Arg-pNA.2AcOH) (manufactured by American Diagnostica Inc.) was added as the substrate at a final concentration of 800 μmol/L. After progression of the reaction, the absorbance was measured at OD 405 nm. Change in OD in case of no addition of the test compound was defined as 100%, and the concentration at which a rise in OD value was reduced by 50% was calculated as […]
# [3] = Dog PK test (Test Example 7); format: in vivo; conditions: plasma, 1 mg/kg, male beagle, intravenous, 1 mg/2 mL/kg, read-out: AUC from 0 hours to 24 hours (compound of Reference Example 2-6 in plasma)
# Description: The compound of Reference Example 2-6 was dissolved in a mixed solution of saline/0.1 N HCl=9/1, and this solution was intravenously administered at a dose of 1 mg/2 mL/kg to a male beagle. Blood collection was carried out 0.25, 0.5, 1, 2, 4, 6, and 24 hours after administration. 2 mL of blood was collected using a syringe packed with 20 μL of Novo-Heparin Injection, transferred to a centrifugal tube cooled in ice, and centrifuged at 3000 rpm at 4° C. for 10 minutes to prepare plasma. 200 μL of the prepared plasma was added to a tube containing 600 μL of acetonitrile and mixed for approximately 10 seconds using a vortex mixer. Then, the concentration of the compound of Reference Example 2-6 was measured.
# The compound of Example 1 was dissolved in a 0.5% aqueous methylcellulose solution, and this solution was orally administered at a dose of 5 mg/5 mL/kg to a male beagle fasted for 16 hours. Blood collection was carried out 0.5, 1, 2, 4, 6, and 24 hours after administration. 2 mL of blood was collected using a syringe packed with 20 μL of Novo-Heparin Injection, transferred to a centrifugal tube cooled in ice, and centrifuged at 3000 rpm at 4° C. for 10 minutes to prepare plasma. […] Then, the concentration of the compound of Reference Example 2-6 was measured.
# human thrombin = target: T2, human thrombin (Homo sapiens, UniProt P00734); assay: Enzyme selectivity evaluation test: thrombin; format: biochemical
# T2 construct: human thrombin (manufactured by Enzyme Research Laboratories); purchased Enzyme Research Laboratories
# Description: S-2366 (pyroGlu-Pro-Arg-pNA.HCl) was added as the substrate at a final concentration of 300 μmol/L. After progression of the reaction, the absorbance was measured at OD 405 nm.
# Human FXIa = Human FXIa (Homo sapiens, UniProt P03951); assay: In vitro activated factor XI (FXIa) inhibition test; format: biochemical; parameters: purchased Enzyme Research Laboratories; conditions: substrate S-2366, 37° C., 10 minutes; read-out: FXIa Inhibition activity IC50
# Chain of Human FXIa (P03951 388-625 limits assumed): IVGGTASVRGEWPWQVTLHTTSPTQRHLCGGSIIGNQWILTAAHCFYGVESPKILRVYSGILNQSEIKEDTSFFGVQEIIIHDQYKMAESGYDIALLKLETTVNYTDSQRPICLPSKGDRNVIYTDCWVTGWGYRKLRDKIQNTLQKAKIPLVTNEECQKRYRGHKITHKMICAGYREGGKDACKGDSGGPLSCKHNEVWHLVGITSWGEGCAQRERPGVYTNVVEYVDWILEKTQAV
# Chain of Human FXIa (P03951 19-387 partner limits assumed): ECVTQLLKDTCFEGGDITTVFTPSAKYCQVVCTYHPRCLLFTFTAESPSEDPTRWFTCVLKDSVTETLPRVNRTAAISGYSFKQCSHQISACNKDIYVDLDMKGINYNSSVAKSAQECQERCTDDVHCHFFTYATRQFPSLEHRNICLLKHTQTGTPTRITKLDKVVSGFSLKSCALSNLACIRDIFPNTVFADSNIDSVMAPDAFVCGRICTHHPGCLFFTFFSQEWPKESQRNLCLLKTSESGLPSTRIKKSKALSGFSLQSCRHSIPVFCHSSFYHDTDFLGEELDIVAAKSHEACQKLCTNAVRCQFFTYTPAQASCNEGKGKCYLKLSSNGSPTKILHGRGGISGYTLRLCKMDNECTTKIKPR
# [4] = dose 1.5 + 2.25 mg/kg + mg/kg/h i.v.
# [5] = dose 5.0 + 7.5 mg/kg + mg/kg/h i.v.
# [6] = dose 0.5 + 0.75 mg/kg + mg/kg/h i.v.
# [7] = dose 15 + 22..5 mg/kg + mg/kg/h i.v.
compound,measurement,setting,value
"Cl.N[C@H](CF)[C@H]1CC[C@H](C(=O)N2CC[C@@H](C3CCCCC3)[C@H]2C(=O)Nc2ccc3[nH]c(C(=O)O)cc3c2)CC1 [Reference Example 2-6, 5-{[(3S)-1-({trans-4-[(1S)-1-Amino-2-fluoroethyl]cyclohexyl}carbonyl)-3-cyclohexyl-L-prolyl]amino}-1H-indole-2-carboxylic acid hydrochloride]",Bleeding time,[1]; [4],772 ± 234 s
same,Bleeding time,[1]; [5],768 ± 236 s
same,Bleeding time (fold-increase),[1]; [4],1.3 ± 0.4 fold-increase
same,Bleeding time (fold-increase),[1]; [5],1.3 ± 0.4 fold-increase
same,Bleeding time,[2]; [6],843 ± 270 s
same,Bleeding time,[2]; [4],772 ± 234 s
same,Bleeding time,[2]; [5],768 ± 236 s
same,Bleeding time,[2]; [7],656 ± 198 s
same,Bleeding time (fold-increase),[2]; [6],1.5 ± 0.5 fold-increase
same,Bleeding time (fold-increase),[2]; [4],1.3 ± 0.4 fold-increase
same,Bleeding time (fold-increase),[2]; [5],1.3 ± 0.4 fold-increase
same,Bleeding time (fold-increase),[2]; [7],1.1 ± 0.3 fold-increase
same,IC50,Human FIXαβ,> 10 µM
same,AUC,[3],5220 ng·h/mL
same,IC50,human thrombin,> 10 µM
same,IC50,Human FXIa,0.006 µM
